Assay results reported in US8343959B2, “N-phenyl-(piperazinyl or homopiperazinyl)-benzenesulfonamide or benzenesulfonyl-phenyl-(piperazine or homopiperazine) compounds suitable for treating disorders that respond to modulation of the serotonin 5-HT6 receptor” (Abbott GmbH & Co. KG, priority 2009, dated 2013).
Structures can show the parent of a compound that is named as a salt.

Molecular target: T1, h-5-HT6 receptor (Homo sapiens, UniProt P50406)
T1 construct: expressed in transfected cells
Experiment: 5-HT6 receptor binding assay (displacement of [3H]-LSD)
Settings: not given
Method: Displacement of Radioligands Binding to The Following Cloned Human Receptors
Cells from stable clonal cell lines expressing the corresponding receptor (5-HT6, α1-adrenergic, dopamine D2 or histamine H1 receptors) were washed with PBS (w/o Ca^++, Mg^++) and harvested in PBS with 0.02% EDTA. The cells were collected by centrifugation at 500 g for 10 min. at 4° C., washed with PBS and centrifuged (500 g, 10 min. 4° C.). The pellets were stored at −80° C. until use. For membrane preparation, the thawed cell pellet was resuspended in ice-cold sucrose buffer (0.25 M sucrose, 10 mM Hepes (pH 7.4), 1 mM Phenylmethylsulfonyl fluoride (PMSF) in DMSO, 5 μg/ml Pepstatin-A, 3 mM EDTA, 0.025% Bacitracin) and homogenized with a Branson Sonifier W-250 (Settings: Timer 4; Output Control 3; Duty Cycle constant; 2 to 3 cycles). Cell disruption was checked with the aid of a microscope. Remaining unbroken cells were pelleted at 1.000 g for 10 min. at 4° C. The sucrose buffer supernatant was then centrifuged at 60.000 g for 1 h at 4° C. (Beckman Ultrazentrifuge XL 80). The pellet was resuspended in 30 ml ice-cold Tris buffer (20 mM TRIS (pH 7.4), 5 μg/ml Pepstatin A, 0.1 mM PMSF, 3 mM EDTA) by pipetting through a 10 ml serological pipet and centrifuged for 1 h at 4° C. at 60.000 g. A final resuspension was performed in a small volume of ice-cold Tris buffer (see above) by pressing through a serological pipet followed by ultrasonic treatment with a Branson Sonifier W-250 (Settings: Timer 1; Output Control 3; Duty Cycle constant; 1 cycle). Protein concentration was determined (BCA-Kit; Pierce) and aliquots stored at −80° C. or in liquid nitrogen for long-term storage.
All receptor binding experiments were carried out in the corresponding assay buffer in a total volume of 200 μl in the presence of various concentrations of test compound (10^−5 M to 10^−9 M, tenfold serial dilution, duplicate determinations). The assays were terminated by filtration on polyethylenimine (PEI 0.1% or 0.3%) presoaked Packard Unifilter Plates (GF/C or GF/B) with a Tomtec Machin U 96 well-plate harvester. After the plates had been dried for 2 h at 55° C. in a drying chamber scintillation cocktail (BetaPlate Scint; PerkinElmer) was added. Radioactivity was measured in a Microbeta Trilux two hours after the addition of the scintillation mixture. Data derived from liquid scintillation counting were analysed by iterative non-linear regression analysis with the use of the Statistical Analysis System (SAS): a program similar to “LIGAND” as described by Munson and Rodbard (Analytical Biochemistry 107, 220-239 (1980).
HEK293 cells stably expressing the h-5-HT6 receptor (NCBI Reference Sequence XM 001435) were cultured in RPMI1640 medium supplemented with 25 mM HEPES, 10% fetal calf serum and 1-2 mM glutamine. The membrane preparation was performed as described in section 1. […] Non-specific binding was defined with 1 μM methiothepin. The binding reaction was carried out for 3.5 h at room temperature. During the incubation, the plates were shaken on a plate shaker at 100 rpm and terminated by filtration on Packard Unifilter GF/C (0.1% PEI) plates, followed by 2 wash cycles with ice-cold 50 mM Tris-HCl, 5 mM CaCl2.
Data derived from liquid scintillation counting were analyzed by iterative non-linear regression analysis with the use of the Statistical Analysis System (SAS): a program similar to “LIGAND” as described by Munson and Rodbard (Anal. Biochem. 1980, 107, 220-239). Fitting was performed according to formulae described by Feldman (Anal. Biochem. 1972, 48, 317-338). IC50, nH and Ki values were expressed as geometrical mean.

T1 sequence (P50406 whole entry): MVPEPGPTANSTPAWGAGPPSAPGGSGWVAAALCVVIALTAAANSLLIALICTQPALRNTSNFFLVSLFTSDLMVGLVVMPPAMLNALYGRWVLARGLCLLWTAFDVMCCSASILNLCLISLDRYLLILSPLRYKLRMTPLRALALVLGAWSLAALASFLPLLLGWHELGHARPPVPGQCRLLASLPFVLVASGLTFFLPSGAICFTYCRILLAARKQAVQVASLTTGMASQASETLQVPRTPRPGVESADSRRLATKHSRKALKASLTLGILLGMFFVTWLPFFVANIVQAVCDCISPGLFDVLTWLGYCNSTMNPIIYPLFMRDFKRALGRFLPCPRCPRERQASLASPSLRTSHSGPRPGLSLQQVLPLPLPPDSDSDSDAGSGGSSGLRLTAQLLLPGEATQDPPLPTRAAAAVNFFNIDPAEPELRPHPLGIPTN

Row | SMILES | Ki [nM]
1 | COc1ccc(S(=O)(=O)c2cccc(OC(F)F)c2)cc1N1CCNCC1 [Example 47, 1-[5-(3-Difluoromethoxy-benzenesulfonyl)-2-methoxy-phenyl]-piperazine hydrochloride] | < 10

Same assay, conditions: membranes of HEK293 cells expressing h-5-HT6 receptor, 1 nM [3H]-LSD; read-out: Ki (5HT6)

Row | SMILES | Ki [nM]
2 | Cc1ccc(S(=O)(=O)N(c2ccccc2OC(F)F)C(C)C)cc1N1CCNCC1 [Example 39, N-(2-Difluoromethoxy-phenyl)-N-isopropyl-4-methyl-3-piperazin-1-yl-benzenesulfonamide hydrochloride] | < 500
3 | CN1CCN(c2cccc(S(=O)(=O)Nc3ccccc3OC(F)F)c2)CC1 [Example 42, N-(2-Difluoromethoxy-phenyl)-3-(4-methyl-piperazin-1-yl)-benzenesulfonamide hydrochloride] | < 10
4 | CN(c1ccccc1OC(F)F)S(=O)(=O)c1cccc(N2CCNCC2)c1 [Example 43, N-(2-Difluoromethoxy-phenyl)-N-methyl-3-piperazin-1-yl-benzenesulfonamide hydrochloride] | < 500
5 | O=S(=O)(c1cccc(OC(F)F)c1)c1cccc(N2CCNCC2)c1 [Example 45, 1-[3-(3-Difluoromethoxy-benzenesulfonyl)-phenyl]-piperazine hydrochloride] | < 10
6 | CN1CCN(c2cccc(S(=O)(=O)c3cccc(OC(F)F)c3)c2)CC1 [Example 46, 1-[3-(3-Difluoromethoxy-benzenesulfonyl)-phenyl]-4-methyl-piperazine hydrochloride] | < 10
7 | COc1ccc(S(=O)(=O)c2cccc(OC(F)F)c2)cc1N1CCN(C)CC1 [Example 48, 1-[5-(3-Difluoromethoxy-benzenesulfonyl)-2-methoxy-phenyl]-4-methyl-piperazine hydrochloride] | < 10
8 | CCc1ccc(S(=O)(=O)Nc2cc(C)ccc2OC(F)F)cc1N1CCN(C)CC1 [Example 54, N-(2-Difluoromethoxy-5-methyl-phenyl)-4-ethyl-3-(4-methyl-piperazin-1-yl)-benzenesulfonamide] | < 10
9 | Cc1ccc(S(=O)(=O)Nc2cc(Cl)ccc2OC(F)F)cc1N1CCN(C)CC1 [Example 56, N-(5-Chloro-2-difluoromethoxy-phenyl)-4-methyl-3-(4-methyl-piperazin-1-yl)-benzenesulfonamide hydrochloride] | < 50
10 | Cc1ccc(OC(F)F)c(NS(=O)(=O)c2ccc(C)c(N3CCN[C@H](C)C3)c2)c1 [Example 63, N-(2-Difluoromethoxy-5-methyl-phenyl)-4-methyl-3-((R)-3-methyl-piperazin-1-yl)-benzenesulfonamide hydrochloride] | < 10
11 | Cc1ccc(OC(F)F)c(NS(=O)(=O)c2ccc(C)c(N3CCN[C@@H](C)C3)c2)c1 [Example 64, N-(2-Difluoromethoxy-5-methyl-phenyl)-4-methyl-3-((S)-3-methyl-piperazin-1-yl)-benzenesulfonamide hydrochloride] | < 10
12 | COc1ccc(S(=O)(=O)Nc2ccc3c(c2)OC(F)(F)O3)cc1N1CCN(C)CC1 [Example 66, N-(2,2-Difluoro-benzo[1,3]dioxol-5-yl)-4-methoxy-3-(4-methyl-piperazin-1-yl)-benzenesulfonamide hydrochloride] | < 10

More lines, now with the values ahead:

Row | Ki [nM] | SMILES
13 | < 10 | COc1ccc(S(=O)(=O)Nc2ccccc2OC(F)F)cc1N1CCN(C)CC1 [Example 37, N-(2-Difluoromethoxy-phenyl)-4-methoxy-3-(4-methyl-piperazin-1-yl)-benzenesulfonamide hydrochloride]
14 | < 10 | COc1ccc(NS(=O)(=O)c2ccc(OC)c(N3CCN(C)CC3)c2)cc1OC(F)F [Example 38, N-(3-Difluoromethoxy-4-methoxy-phenyl)-4-methoxy-3-(4-methyl-piperazin-1-yl)-benzenesulfonamide hydrochloride]
15 | < 50 | COc1ccc(S(=O)(=O)Nc2cccc3c2OC(F)(F)O3)cc1N1CCNCC1 [Example 40, N-(2,2-Difluoro-benzo[1,3]dioxol-4-yl)-4-methoxy-3-piperazin-1-yl-benzenesulfonamide hydrochloride]
16 | < 10 | O=S(=O)(Nc1ccccc1OC(F)F)c1cccc(N2CCNCC2)c1 [Example 41, N-(2-Difluoromethoxy-phenyl)-3-piperazin-1-yl-benzenesulfonamide hydrochloride]
17 | < 10 | COc1ccc(S(=O)(=O)c2ccc(OC)c(N3CCNCC3)c2)cc1OC(F)F [Example 49, 1-[5-(3-Difluoromethoxy-4-methoxy-benzenesulfonyl)-2-methoxy-phenyl]-piperazine hydrochloride]
18 | < 10 | COc1ccc(S(=O)(=O)Nc2ccc(OC(F)F)c(OC(F)F)c2)cc1N1CCN(C)CC1 [Example 51, N-(3,4-Bis-difluoromethoxy-phenyl)-4-methoxy-3-(4-methyl-piperazin-1-yl)-benzenesulfonamide hydrochloride]
19 | < 50 | Cc1ccc(S(=O)(=O)Nc2ccc(OC(F)F)c(OC(F)F)c2)cc1N1CCNCC1 [Example 52, N-(3,4-Bis-difluoromethoxy-phenyl)-4-methyl-3-piperazin-1-yl-benzenesulfonamide hydrochloride]
20 | < 10 | COc1ccc(S(=O)(=O)Nc2cc(Cl)ccc2OC(F)F)cc1N1CCN(C)CC1 [Example 53, N-(5-Chloro-2-difluoromethoxy-phenyl)-4-methoxy-3-(4-methyl-piperazin-1-yl)-benzenesulfonamide hydrochloride]
21 | < 10 | COc1ccc(S(=O)(=O)Nc2cc(OC(F)F)ccc2C)cc1N1CCN(C)CC1 [Example 55, N-(5-Difluoromethoxy-2-methyl-phenyl)-4-methoxy-3-(4-methyl-piperazin-1-yl)-benzenesulfonamide hydrochloride]
22 | < 10 | COc1ccc(S(=O)(=O)Nc2cc(Cl)ccc2OC(F)F)cc1N1CCNCC1 [Example 57, N-(5-Chloro-2-difluoromethoxy-phenyl)-4-methoxy-3-piperazin-1-yl-benzenesulfonamide hydrochloride]
23 | < 10 | Cc1ccc(OC(F)F)cc1NS(=O)(=O)c1ccc(C)c(N2CCNCC2)c1 [Example 58, N-(5-Difluoromethoxy-2-methyl-phenyl)-4-methyl-3-piperazin-1-yl-benzenesulfonamide hydrochloride]
24 | < 10 | COc1ccc(S(=O)(=O)Nc2cc(OC(F)F)ccc2C)cc1N1CCNCC1 [Example 59, N-(5-Difluoromethoxy-2-methyl-phenyl)-4-methoxy-3-piperazin-1-yl-benzenesulfonamide hydrochloride]
25 | < 10 | COc1ccc(S(=O)(=O)Nc2ccc(OC(F)F)c(OC(F)F)c2)cc1N1CCNCC1 [Example 60, N-(3,4-Bis-difluoromethoxy-phenyl)-4-methoxy-3-piperazin-1-yl-benzenesulfonamide hydrochloride]
26 | < 10 | CCc1ccc(S(=O)(=O)Nc2cc(Cl)ccc2OC(F)F)cc1N1CCNCC1 [Example 61, N-(5-Chloro-2-difluoromethoxy-phenyl)-4-ethyl-3-piperazin-1-yl-benzenesulfonamide hydrochloride]
27 | < 10 | CCc1ccc(S(=O)(=O)Nc2ccc(C)cc2OC(F)F)cc1N1CCNCC1 [Example 62, N-(2-Difluoromethoxy-4-methyl-phenyl)-4-ethyl-3-piperazin-1-yl-benzenesulfonamide hydrochloride]
28 | < 10 | CCc1ccc(S(=O)(=O)Nc2cc(C)ccc2OC(F)F)cc1N1CCNCC1 [Example 65, N-(2-Difluoromethoxy-5-methyl-phenyl)-4-ethyl-3-piperazin-1-yl-benzenesulfonamide hydrochloride]
